Measurements taken from a melting point compilation (Tetko et al.; mined from patent text by program, amines drawn as free bases though some values may be those of a salt).

Structure (SMILES)	melting point [°C]
COc1ccc(Cl)cc1NC(=O)Nc1ccc(N2CCN(C(=O)OC(C)(C)C)CC2)cc1	205
CSc1nn(C(=O)NC(C)CCl)c(=O)n1N (stereo not given)	136
CCCCOc1nc(N)nc2[nH]cnc12	165
COC(=O)[C@@H](Cc1ccccc1)Oc1c(Br)cc(-c2c3ccccc3c(Br)c3sc4ccccc4c23)cc1Br	138 to 140
CCCc1c(CSc2nnc(NC(=O)CC(=O)OCc3ccc(OC)cc3)s2)ccc(C(C)=O)c1O	162 to 166
COc1ccc([C@]2(O)OCC(C)(C)N[C@H]2C)cc1	170 to 172
N#CC=Cc1ccc(NC(=O)C=CC=C(Nc2cc(Cl)cc(Cl)c2I)C(=O)OCc2ccccc2)cc1	132 to 134
Clc1cc2nc(NC3=NCCN3)[nH]c2c(Cl)c1Cl	324 to 326
CC(=O)N[C@@H](Cc1cn(Cc2ccccc2)cn1)C(=O)OCc1ccccc1	113 to 114
Nc1nc2c(Cc3ccccn3)c[nH]c2c(=O)[nH]1	280 to 282
O=C(O)c1ccc(F)cc1Sc1ccc(F)cc1	209 to 218
C#CCn1c(=O)c2c(nc(C#Cc3cccc(O)c3)n2C)n(C)c1=O	271
Clc1ncc(OC[C@@H]2CCCN2)cc1-c1ccccc1	75 to 80
OC(Cc1ccc(Cl)cc1)(Cn1ccnc1)c1ccc(-c2ccccc2)cc1 (stereo not given)	182
CS(=O)(=O)Nc1nn(CCN2CCCCC2)cc1-c1ccccc1	121
CCOC(=O)C1C(=O)Nc2ccccc2SC1c1ccc(OC)cc1 (stereo not given)	192
O=C(O)c1ncn2c1[C@@H]1CCN1C(=O)c1c(Cl)cccc1-2	244 to 245
Cc1cccc(C)c1N1CC(C)N(c2c(C)cccc2C)C1=NCC(=O)O (stereo not given)	307 to 310
CN(C)CCCNC(=O)CCCCCCCCCCCNC(N)=NC(=O)c1nc(Cl)c(N)nc1N	82 to 84
CCOC(=O)C1=C(C(=O)OCC)N(c2ccccc2)C(c2ccccc2)N(c2ccccc2)C1 (stereo not given)	120
COC(=O)Cc1cc([N+](=O)[O-])ccc1OC	92

Structure (SMILES)	melting point [°C]
Fc1cccc(F)c1C1=NC(c2ccc(I)cc2)CO1 (stereo not given)	105 to 106
O=C(NCc1cccc(-c2ccc(CS(=O)(=O)Cc3n[nH]c(=O)[nH]3)cc2)c1)c1nc2ccccc2c(=O)[nH]1	245 to 247
COc1ccccc1CN1Cc2c(-c3ccccc3)c3cc(C)c(C)cc3c(=O)n2CC1=O	211 to 214
COc1ccc2c(c1F)CSCC2=O	85 to 92
CCCCn1c(=O)[nH]c(=O)c2c3n(nc21)CCN3	239 to 240
CC(C)C(OC(=O)/C=C/c1ccccc1)OC(=O)NC1(C(=O)O)CC1 (stereo not given)	148 to 150
Cn1ncc(C(=O)N2CCCC2)c1C(=O)Nc1ccn2nc(-c3cccnc3)nc2c1	226 to 228
COC(=O)NC(C)c1cccc(-c2ccc(OC)cc2)c1 (stereo not given)	117 to 119
NCC1COc2cc(Cl)cc(-c3ccccc3Cl)c2N1 (stereo not given)	108
N#Cc1cc(-c2cc(C(F)F)c3cn[nH]c3n2)ccc1N	263
CCOC(=O)N1c2cc(OC)c(OC)cc2C(=O)CC1C (stereo not given)	94 to 95
O=C1c2ccccc2C(=O)N1OCCCN1CCN(c2nsc3ccccc23)CC1	143 to 144
OCCN(CCO)Cc1nnc2n1-c1ccc(Cl)cc1C(c1ccccc1)=NC2	84 to 87
COc1ccc(S(=O)(=O)C2=C(C(=O)NO)CCC2=CCCc2ccccc2)cc1OC	70 to 73
Cc1cccc(C(=O)NC2CN3CCC2CC3)c1C (racemic)	160 to 161
COc1cc(C)c([N+](=O)[O-])cc1F	95 to 95.5
O=c1[nH]ccc2c1ccn2-c1ccc(C(F)(F)F)cc1Cl	233 to 235
CN1CCC(c2n[nH]c3cc(Cl)ccc23)CC1	211 to 213
CCOCN(C(=O)N(COCc1ccccc1)c1nc(OCC(F)(F)F)cc(OCC(F)(F)F)n1)c1ccc(C(F)(F)F)cc1	62 to 65
C=CCc1c2c(cc(OCc3ccccc3)c1C(C)(C)C)CC(C)(C)O2	73 to 74
CCOC(=O)C(=CNc1ccccc1[N+](=O)[O-])C(=O)OCC	104 to 105

Further lines, results first:

melting point [°C]	Structure (SMILES)
93.3 to 96.2	O=C(Nc1ccc(F)cc1)c1ccccc1Cl
85 to 89	CN(C)c1ccc(NC(=O)C(CS)Cc2ccccc2)cc1C(=O)O (stereo not given)
192	COc1ccc(-c2cc(N)c(Cl)c(C(=O)O)n2)cc1
113 to 114	[N-]=[N+]=NCCOc1cc(Cl)cc([N+](=O)[O-])c1N
> 55	OC1(CNCc2ccccn2)CCN(CCCc2c[nH]c3ccc(-n4cnnc4)cc23)CC1
237 to 239	COc1cc2nc(-c3cc(C)c(O)c(C)c3)[nH]c(=O)c2c(OC)c1CN1CCOCC1
176 to 178	CC(C)OC(=O)C(C)NC(=O)C(N)(CC(=O)O)NC(=O)C(C)C (stereo not given)
170 to 172	CC(C)(C)c1cc(C(C)(C)C)c(Br)c(C(C)(C)C)c1
67 to 69	C#CCN(CC#C)S(=O)(=O)c1cccc2c(N(C)C)cccc12
88 to 92	CCCN(CC(O)C(Cc1ccccc1)NC(=O)C(C)CS(C)(=O)=O)S(=O)(=O)c1ccc(OC)cc1 (stereo not given)
129 to 131	CCC1CCc2nc3c(c(N)c2C1=O)c1ccccc1n3C (stereo not given)
49 to 50	CCS(=O)(=O)N[C@H](C(=O)NCc1ccc(O)c(OC)c1)C(C)C
322 to 326	C=CCNc1nc(C2C(=O)Nc3ccc(Br)cc32)c2cn(CCC)nc2n1 (stereo not given)
127 to 129	CCN1c2ccccc2CC(C#N)c2ccccc21 (stereo not given)
110	CCN(CCCCc1c[nH]c2ccc(F)cc12)C1COc2c(F)ccc(C(N)=O)c2C1 (stereo not given)
108	O=[N+]([O-])c1ccc(Cl)cc1NC1Cc2ccccc2C1
276 to 279	CCOC(=O)c1cc(Cl)c2[nH]ncc2n1
67	CCN(CC)CCNc1ccc(-c2ccnc(Nc3cc(OC)c(OC)c(OC)c3)n2)cn1
216 to 218	Cc1ccc(-c2c(O)c(=O)c3ccccc3n2C)cc1
160 to 162	O=C(COc1ccccc1)NC1C(=O)N2C(C(=O)OCc3ccc([N+](=O)[O-])cc3)=C(O)CCC12 (stereo not given)

melting point [°C]	Structure (SMILES)
90 to 92	C[C@H]1C[C@@](O)(c2cccc(Sc3cc4c(cc3F)N(C)C(=O)CC4)c2)CCO1
114 to 116	N#Cc1cc(-c2nccs2)[nH]c1C(CC1CCOCC1)c1ccc(S(=O)(=O)C2CC2)cc1 (stereo not given)
93	Cc1c(C)c2c(c(C)c1C=O)OC(C)(C)C2
171	Cc1cc(N)nc(CCc2nc3cc(-c4ccc(S(=O)(=O)N5CCCC5)cc4)cnc3[nH]2)c1
175 to 177	O=C(c1ccc(-n2ccnc2)cc1)N1CCN(S(=O)(=O)c2cc3cc(Cl)ccc3o2)CC1
111 to 113	CCCCCCCCCCc1csc2c1sc1c3scc(CCCCCCCCCC)c3sc21
300	O=c1[nH]c2ccccc2nc1-c1ccc(Cl)cc1Cl
185 to 186	Cc1cc(OCc2cnc(-c3ccc(C(F)(F)F)nc3)nc2C2CC2)ccc1OC(C)(C)C(=O)O
135 to 137	CC(O)Cc1cc2c(cc1C(=NNc1ccc(Cl)nn1)c1ccc([N+](=O)[O-])cc1)OCO2 (stereo not given)
229 to 233	C=Cc1ccc2nc(Cl)c(S(N)(=O)=O)n2n1
274	C=C(C)c1ccc(C2C(C(=O)c3ccc(C(C)C)cc3)=C(O)C(=O)N2c2ccc(C)nn2)cc1 (stereo not given)
110 to 116	C=C(C(=O)c1ccc(OC)c(Cl)c1Cl)c1ccc(Br)cc1
157	CC(C)(C#N)c1c(Cl)cc(-n2nc(C(=O)O)c(=O)[nH]c2=O)cc1Cl
74 to 76	CCCN(CC)c1cc(C)nc(Oc2c(C)ccc(Cl)c2C)c1C
203 to 204	Cc1cc(C(F)(F)F)n2nc(NS(=O)(=O)c3ccccc3Cl)nc2n1
> 250	COc1cccc(-c2cc(=O)c3ccccc3[nH]2)c1SCc1ccccc1
185 to 189	CSc1sc(-c2nnco2)c2c1C(=O)CC(C)(C)C2
226 to 228	COc1cc2c3c(cccc3c1OC)C(=O)N(O)C2=O
60 to 65	CC(C)Cc1nn(C)c(=O)c2c(SCCCO)c(Cc3ccccc3)sc12
240 to 242	COC(=O)c1n[nH]c2cc(C(F)(F)F)ccc12

melting point [°C]	Structure (SMILES)
99	COc1ccc2cccc(C(=O)C(=O)O)c2c1
71 to 73	Cc1ccc(C(C)(C)CCCCC(=O)O)cc1C
86 to 87	CCC(=O)Oc1c(OC)c(OC)c(OC(C)=O)c2ccc(Cl)cc12
189 to 190	NC(=O)c1ccc(F)c2c1C=CCO2
158 to 160	Cc1ccc(NC(=O)N2CCC(=C(F)c3cccc(Oc4ccc(C(F)(F)F)cn4)c3)CC2)cn1
86 to 95	CCCCNc1c(C(=O)OCC)cnc2cn[nH]c12
185 to 186	COc1ccc(/C=C/C(=O)N2CC(CCl)c3c2cc(NC(=O)OC(C)(C)C)c2ccccc32)cc1 (stereo not given)
65 to 67	N#CC1(CCc2ccccc2)CCCCN1C(=O)c1ccccc1 (stereo not given)
168 to 171	COC(=O)C=CN1CCN(c2cccc(-n3cnc4cc(-c5ccoc5)ccc43)c2)CC1
143 to 145	CC(C)(C)OC(=O)N1CCC(N2C(=O)OCc3ccccc32)CC1
116	CN(C(=O)Nc1ccc(Cl)c(Cl)c1)S(=O)(=O)C(C)(C)C
82 to 87	Cc1ccccc1-c1ccc2c(c1)CC[C@H]1N(C)C(=O)CC[C@]21C
98	CCCCCCCCOc1cc(O)c2c(=O)c3ccccc3oc2c1
221 to 225	COc1cc(-c2ccc(N(C)CCN(C)c3ccc(-c4cc(OC)c(N5CCCC5)c(OC)c4)nc3)cn2)cc(OC)c1N1CCCC1
60 to 63	COCCN(C)C(=O)NCCNCC(O)COc1ccc(OCCOCC(C)C)cc1 (stereo not given)
105	O=C(O)CCCCCCCCCCCOc1ccccc1OCCCC(=O)O
142	Cc1c(C)c(Cl)c2ccccc2c1Cl
53	CCCCCCCCSc1ccc(C=Cc2ccc([N+](=O)[O-])cc2)cc1
